Several values for one entry are separate records, joined by “and”; a condition that tells them apart may be missing. Equal entries are not always repeated. Where two headings read alike, the source gives them in different places.
Key:
[1] = Toxicity analysis of test compounds in 2.2.15 cells (neutral red dye uptake); format: cell-based; settings: human
Description: Toxicity analyses were performed in order to assess whether any observed antiviral effects are due to a general effect on cell viability. The method used was based on the uptake of neutral red dye, a standard and widely used assay for cell viability in a variety of virus-host systems, including HSV (herpes simplex virus) and HIV. Details of the procedure are provided in the toxicity table legends.
The test compounds were used in the form of 40 mM stock solutions in DMSO (frozen on dry ice). Daily aliquots of the test samples were made and frozen at -20° C. so that each individual aliquot would be subjected to a single freeze-thaw cycle. The daily test aliquots were thawed, suspended into culture medium at room temperature and immediately added to the cell cultures° The compounds were tested at 0.0 and 1 μM for antiviral activity. The compounds were tested for toxicity at concentrations up to 300 μM.
Toxicity analyses were performed in 96-well flat bottomed tissue culture plates. Cells for the toxicity analyses were cultured and treated with test compounds with the same schedule as used for the antiviral evaluations. Each compound was tested at 4 concentrations, each in triplicate cultures. Uptake of neutral red dye was used to determine the relative level of toxicity. The absorbance of internalized dye at […] (A510) was used for the quantitative analysis. Values are presented as a percentage of the average A510 values (±standard deviations) in 9 separate cultures of untreated cells maintained on the same 96-well plate as the test compounds.

HBV [2] = experiment: Effect of nucleosides on HBV production in 2.2.15 cells (HBV virion DNA and intracellular HBV DNA); format: cell-based, Hepatitis B virus; settings: for inhibition at 10 µM: Hepatitis B virus
Description: The ability of β-D-dioxolane-nucleosides to inhibit HBV can be measured by various experimental techniques. The assay used herein to evaluate the ability of the disclosed compounds to inhibit the replication of HBV is described in detail in Korba and Gerin, Antiviral Res. 19:55-70 (1992). […] The other compounds disclosed herein are evaluated similarly.
The antiviral evaluations were performed on two separate passages of cells, two cultures per passage (4 cultures total). All wells, in all plates, were seeded at the same density and at the same time.
Due to the inherent variations in the levels of both intracellular and extracellular HBV DNA, only depressions greater than 3.0-fold (for HBV virion DNA) or 2.5-fold (for HBV DNA replication intermediates) from the average levels for these HBV DNA forms in untreated cells are generally considered to be statistically significant [P<0.05] (Korba and Gerin, Antiviral Res. 19: 55-70, 1992). The levels of integrated HBV DNA in each cellular DNA preparation (which remain constant on a per cell basis in these experiments) were used to calculate the levels of intracellular HBV DNA forms, thereby eliminating technical variations inherent in the blot hybridization assays.
The test compounds were used in the form of 40 mM stock solutions in DMSO (frozen on dry ice). Daily aliquots of the test samples were made and frozen at -20° C. so that each individual aliquot would be subjected to a single freeze-thaw cycle. […] The compounds were tested for toxicity at concentrations up to 300 μM.

2.2.15 cells = settings: versus untreated cultures; Korba and Gerin 1992; read-out: Concentration at which a 2-fold reduction in dye uptake is typically observed; cited from earlier work
[3] = Toxicity analysis of test compounds in 2.2.15 cells (neutral red dye uptake); format: cell-based; settings: human; remark: listed apart in the source
HBV [4] = settings: relative to average levels in untreated cells; Korba and Gerin 1992; read-out: Concentration at which a 90% depression of HBV RI is typically observed; cited from earlier work
[5] = 10 μM, individual culture, listed as DDC

Nc1ccn([C@H]2CC[C@@H](CO)O2)c(=O)n1 [2',3'-ddC, 2',3'-dideoxycytosine, reference compound]
viability at 30 µM ([1]; 30 μM): 101 ± 1% | viability at 100 µM ([1]; 100 μM): 97 ± 2% | viability at 300 µM ([1]; 300 μM): 44 ± 1% | HBV virion DNA, day 0 (HBV [2]; [5]): 66 pg/ml of cultured medium and 58 pg/ml of cultured medium and 67 pg/ml of cultured medium and 51 pg/ml of cultured medium | HBV virion DNA, day 3 (HBV [2]; [5]): 50 pg/ml of cultured medium and 52 pg/ml of cultured medium and 51 pg/ml of cultured medium and 48 pg/ml of cultured medium | HBV virion DNA, day 6 (HBV [2]; [5]): 20 pg/ml of cultured medium and 13 pg/ml of cultured medium and 19 pg/ml of cultured medium and 17 pg/ml of cultured medium | HBV virion DNA, day 9 (HBV [2]; [5]): 2 pg/ml of cultured medium and 3 pg/ml of cultured medium | Intracellular HBV DNA on Day 10, Mono (episomal 3.2kB HBV genomes) (HBV [2]; [5]): 0.9 pg/μM of cellular DNA and 1.0 pg/μM of cellular DNA and 1.4 pg/μM of cellular DNA and 1.1 pg/μM of cellular DNA | Intracellular HBV DNA on Day 10, RI (HBV DNA replication intermediates) (HBV [2]; [5]): 6 pg/μM of cellular DNA and 4 pg/μM of cellular DNA and 5 pg/μM of cellular DNA and 7 pg/μM of cellular DNA | HBV virion DNA, day 0, mean (HBV [2]; 10 μM, mean of 4 cultures): 60.50 pg/ml of cultured medium | HBV virion DNA, day 3, mean (HBV [2]; 10 μM, mean of 4 cultures): 50.25 pg/ml of cultured medium | HBV virion DNA, day 6, mean (HBV [2]; 10 μM, mean of 4 cultures): 17.25 pg/ml of cultured medium | HBV virion DNA, day 9, mean (HBV [2]; 10 μM, mean of 4 cultures): 2.25 pg/ml of cultured medium | Intracellular HBV DNA on Day 10, Mono, mean (HBV [2]; 10 μM, mean of 4 cultures): 1.10 pg/μM of cellular DNA | Intracellular HBV DNA on Day 10, RI, mean (HBV [2]; 10 μM, mean of 4 cultures): 5.50 pg/μM of cellular DNA | inhibition at 10 µM (HBV [2]; 0 h, read-out: % inhibition, HBV virion DNA, day 0): 3.97% | inhibition at 10 µM (HBV [2]; 72 h, read-out: % inhibition, HBV virion DNA, day 3): 22.4% | inhibition at 10 µM (HBV [2]; 144 h, read-out: % inhibition, HBV virion DNA, day 6): 77.5% | inhibition at 10 µM (HBV [2]; 216 h, read-out: % inhibition, HBV virion DNA, day 9): 97% | inhibition at 10 µM (HBV [2]; 240 h, read-out: % inhibition, intracellular HBV DNA Mono, Day 10): 56.4% | inhibition at 10 µM (HBV [2]; 240 h, read-out: % inhibition, intracellular HBV DNA RI, Day 10): 92.5% | Depression of HBV DNA replication (HBV [2]; positive treatment control, at the concentration used): significant depressions of HBV DNA replication | CC50 (2.2.15 cells): 150 to 190 µM | viability at 1000 µM [3]: 5 ± 1% | EC90 (HBV [4]): 9 to 12 µM
